Results on 9 compounds are retold here after US4156724A, “N-acylamino-alpha-arylacetamido cephalosporins and antibacterial compositions and methods containing them” (Sumitomo Chemical Company, Limited, priority 1974, dated 1979).

Common to all, as to format: cell-based
One experiment concerns Proteus vulgaris HX 19. As to the kind of experiment: Minimum Inhibitory Concentration, Proteus vulgaris HX 19. As to conditions: HX19; Proteus vulgaris HX 19; read-out: Minimum Inhibitory Concentration. The procedure: (§1) anti-microbial activity tests were carried out on the compounds obtained in the Examples.
The next experiment relates to Escherichia coli NIHJ. The experiment in a line: Minimum Inhibitory Concentration, Escherichia coli NIHJ. As to conditions: Escherichia coli NIHJ; read-out: Minimum Inhibitory Concentration. The procedure: as §1
Experiment [1] concerns Staphylococcus aureus 209 P. The experiment in a line: Minimum Inhibitory Concentration, Staphylococcus aureus 209 P. As to conditions: Staphylococcus aureus 209 P; read-out: Minimum Inhibitory Concentration. The method, then:
as §1

For experiment [2], the system named is Klebsiella pneumoniae 602. As to the kind of experiment: Minimum Inhibitory Concentration, Klebsiella pneumoniae 602. As to conditions: Klebsiella pneumoniae, 602, Klebsiella pneumoniae 602; read-out: Minimum Inhibitory Concentration. The method, then:
as §1

Experiment [3] concerns Pseudomonas aeruginosa 104. The experiment in a line: Minimum Inhibitory Concentration, Pseudomonas aeruginosa 104. As to conditions: Pseudomonas aeruginosa 104; read-out: Minimum Inhibitory Concentration. The procedure: as §1
The subject of a further experiment is Serratia No. 72. The experiment in a line: Minimum Inhibitory Concentration, Serratia No. 72. The method, then: as §1
Experiment [4] deals with Enterobacter aerogeneus No. 75. The experiment in a line: Minimum Inhibitory Concentration, Enterobacter aerogeneus No. 75. As to conditions: Enterobacter aerogeneus No. 75; read-out: Minimum Inhibitory Concentration. The method, then: as §1
For experiment [5], the system named is Staphylococcus aureus FS 289. As to the kind of experiment: Minimum Inhibitory Concentration, Staphylococcus aureus FS 289. The settings on record: FS289; Staphylococcus aureus FS 289, strain resistant to penicillin; read-out: Minimum Inhibitory Concentration. The procedure: as §1
*Staphylococcus aureus FS 289: strain resistant to penicillin

Molecules are shown by their SMILES. ≈ marks a conversion by molar mass, not a printed value. Where only a bound is given, the exact number is not on record here.

On to `O=C(O)C1=C(CSc2ccc(O)nn2)CSC2C(NC(=O)C(NC(=O)c3cnccc3O)c3ccc(CO)cc3)C(=O)N12` (stereo not drawn) [Example 111], for which the MIC was determined as 0.39 µg/mL (≈ 0.624 µM) in the experiment with Proteus vulgaris HX 19; 12.5 µg/mL (≈ 20 µM) with Escherichia coli NIHJ; 0.78 µg/mL (≈ 1.25 µM) in experiment [1]; 6.25 µg/mL (≈ 10 µM) in experiment [2]; 12.5 µg/mL (≈ 20 µM) in experiment [3]; 100 µg/mL (≈ 160 µM) in the experiment on Serratia No. 72. The MIC in experiment [4] was found to be 12.5 µg/mL (≈ 20 µM); in experiment [5], 6.25 µg/mL (≈ 10 µM).

Turning to `Cn1nnnc1SCC1=C(C(=O)O)N2C(=O)C(NC(=O)C(NC(=O)c3cccnc3O)c3ccc(CO)cc3)C2SC1` (stereo not drawn) [Example 112], the MIC with Proteus vulgaris HX 19 came to 0.78 µg/mL (≈ 1.27 µM); in the experiment with Escherichia coli NIHJ it was 12.5 µg/mL (≈ 20.4 µM); in experiment [1] it was 0.78 µg/mL (≈ 1.27 µM); in experiment [2], 6.25 µg/mL (≈ 10.2 µM); in experiment [3], 12.5 µg/mL (≈ 20.4 µM); with Serratia No. 72, 100 µg/mL (≈ 163 µM). For the same compound, the MIC in experiment [4] is 25 µg/mL (≈ 40.8 µM); in experiment [5], 12.5 µg/mL (≈ 20.4 µM).

Turning to `CC(=O)OCC1=C(C(=O)O)N2C(=O)C(NC(=O)[C@H](NC(=O)c3cnccc3O)c3ccc(O)cc3)C2SC1` (stereo partly drawn) [Example 113, 7-[D-α-(4-Hydroxypyridine-3-carbonamido)-α-p-hydroxyphenylacetamido]cephalosporanic Acid], the MIC with Proteus vulgaris HX 19 was 0.2 µg/mL (≈ 0.369 µM); with Escherichia coli NIHJ it was 12.5 µg/mL (≈ 23 µM); in experiment [1], 0.39 µg/mL (≈ 0.719 µM); in experiment [2] it was 12.5 µg/mL (≈ 23 µM); in experiment [3] it was 6.25 µg/mL (≈ 11.5 µM); with Serratia No. 72 it was > 200 µg/mL. The results for the MIC in experiment [4] and in experiment [5] were 25 µg/mL (≈ 46.1 µM) and 3.13 µg/mL (≈ 5.77 µM), respectively.

On to `CC(=O)OCC1=C(C(=O)O)N2C(=O)C(NC(=O)C(NC(=O)c3cnccc3O)c3cccc(O)c3)C2SC1` (stereo not drawn) [Example 114], for which the MIC was 0.39 µg/mL (≈ 0.719 µM) in the experiment on Proteus vulgaris HX 19; 12.5 µg/mL (≈ 23 µM) in the experiment with Escherichia coli NIHJ; 0.39 µg/mL (≈ 0.719 µM) in experiment [1]; 12.5 µg/mL (≈ 23 µM) in experiment [2]; 6.25 µg/mL (≈ 11.5 µM) in experiment [3]; > 200 µg/mL against Serratia No. 72. Moreover, the MIC in experiment [4] is 25 µg/mL (≈ 46.1 µM); in experiment [5], 6.25 µg/mL (≈ 11.5 µM).

Regarding `CC(=O)OCC1=C(C(=O)O)N2C(=O)C(NC(=O)C(NC(=O)c3cccnc3O)c3ccc(O)cc3)C2SC1` (stereo not drawn) [Example 115], the MIC with Proteus vulgaris HX 19 is 0.78 µg/mL (≈ 1.44 µM); in the experiment with Escherichia coli NIHJ, 12.5 µg/mL (≈ 23 µM); in experiment [1], 0.39 µg/mL (≈ 0.719 µM); in experiment [2], 25 µg/mL (≈ 46.1 µM); in experiment [3] it was 12.5 µg/mL (≈ 23 µM); in the experiment with Serratia No. 72, > 200 µg/mL. In addition, the MIC in experiment [4] was determined as 25 µg/mL (≈ 46.1 µM); in experiment [5] it was 6.25 µg/mL (≈ 11.5 µM).

On to `CC(=O)OCC1=C(C(=O)O)N2C(=O)C(NC(=O)[C@H](NC(=O)c3ccnnc3O)c3ccc(O)cc3)C2SC1` (stereo partly drawn) [Example 116], for which the MIC in the experiment with Proteus vulgaris HX 19 was 0.2 µg/mL (≈ 0.368 µM); in the experiment on Escherichia coli NIHJ, 12.5 µg/mL (≈ 23 µM); in experiment [1] it was 0.39 µg/mL (≈ 0.718 µM); in experiment [2], 6.25 µg/mL (≈ 11.5 µM); in experiment [3], 6.25 µg/mL (≈ 11.5 µM); in the experiment on Serratia No. 72, > 200 µg/mL. Besides, the MIC in experiment [4] amounted to 25 µg/mL (≈ 46 µM); in experiment [5], 3.13 µg/mL (≈ 5.76 µM).

Regarding `CC(=O)OCC1=C(C(=O)O)N2C(=O)C(NC(=O)[C@H](NC(=O)c3cnccc3O)c3ccc(O)c(Cl)c3)C2SC1` (stereo partly drawn) [Example 117], the MIC in the experiment with Proteus vulgaris HX 19 was 0.2 µg/mL (≈ 0.347 µM); in the experiment on Escherichia coli NIHJ, 12.5 µg/mL (≈ 21.7 µM); in experiment [1], 0.39 µg/mL (≈ 0.676 µM); in experiment [2], 12.5 µg/mL (≈ 21.7 µM); in experiment [3], 6.25 µg/mL (≈ 10.8 µM); with Serratia No. 72, 100 µg/mL (≈ 173 µM). Moreover, the MIC in experiment [4] amounted to 25 µg/mL (≈ 43.3 µM); in experiment [5], 6.25 µg/mL (≈ 10.8 µM).

`CC(=O)OCC1=C(C(=O)O)N2C(=O)C(NC(=O)[C@H](NC(=O)c3cncnc3O)c3ccc(O)cc3)C2SC1` (stereo partly drawn) [Example 118]: the MIC in the experiment on Proteus vulgaris HX 19 was 0.39 µg/mL (≈ 0.718 µM); with Escherichia coli NIHJ it was 12.5 µg/mL (≈ 23 µM); in experiment [1], 0.39 µg/mL (≈ 0.718 µM); in experiment [2], 25 µg/mL (≈ 46 µM); in experiment [3], 6.25 µg/mL (≈ 11.5 µM); against Serratia No. 72 it was > 200 µg/mL. Moreover, the MIC is 25 µg/mL (≈ 46 µM) in experiment [4] and 6.25 µg/mL (≈ 11.5 µM) in experiment [5].

For the compound `CC(=O)OCC1=C(C(=O)O)N2C(=O)C(NC(=O)[C@H](NC(=O)c3cnc(O)nc3O)c3ccc(O)cc3)C2SC1` (stereo partly drawn) [Example 119], the MIC in the experiment on Proteus vulgaris HX 19 is 0.39 µg/mL (≈ 0.697 µM); with Escherichia coli NIHJ, 6.25 µg/mL (≈ 11.2 µM); in experiment [1], 0.39 µg/mL (≈ 0.697 µM); in experiment [2], 25 µg/mL (≈ 44.7 µM); in experiment [3], 6.25 µg/mL (≈ 11.2 µM); with Serratia No. 72, > 200 µg/mL. Moreover, the MIC in experiment [4] came to 25 µg/mL (≈ 44.7 µM); in experiment [5], 6.25 µg/mL (≈ 11.2 µM).
